Assay results reported in patent US10702479B2, “Pharmaceutical formulation comprising sembragiline” (Hoffmann-La Roche Inc., priority 2015, dated 2020).
Read-outs that look alike come from different tables or passages of the source.

Assay: Solubility of Sembragiline in media at 37° C.
Type: physicochemical
Settings: for solubility at 4 h: read-out: Solubility of Sembragiline After 4 h

CC(=O)N[C@H]1CC(=O)N(c2ccc(OCc3cccc(F)c3)cc2)C1 [Sembragiline, N-[(3S)-1-[4-[(3-fluorophenyl)methoxy]phenyl]-5-oxo-pyrrolidin-3-yl]acetamide]
25: Dose Solubility Ratio (1 mg, Water) | Dose Solubility Ratio (1 mg, pH 1, HCl 0.1N) | Dose Solubility Ratio (1 mg, pH 4.5, 50 mM acetate buffer) | Dose Solubility Ratio (1 mg, pH 6.8, 50 mM phosphate buffer) | Dose Solubility Ratio (1 mg, pH 7.5, 50 mM phosphate buffer)
10 mg: Solubility of Sembragiline 250 mL (Water) | Solubility of Sembragiline 250 mL (pH 1, HCl 0.1N) | Solubility of Sembragiline 250 mL (pH 4.5, 50 mM acetate buffer) | Solubility of Sembragiline 250 mL (pH 6.8, 50 mM phosphate buffer) | Solubility of Sembragiline 250 mL (pH 7.5, 50 mM phosphate buffer)
40 µg/mL: solubility at 4 h (0.1 N HCl, simulated gastric fluid, pH 1, HCl 0.1N) | solubility at 4 h (Water) | solubility at 4 h (aqueous buffer, pH 4.5, 50 mM acetate buffer) | solubility at 4 h (aqueous buffer, pH 6.8, 50 mM phosphate buffer) | solubility at 4 h (aqueous buffer, pH 7.5, 50 mM phosphate buffer)
125: Dose Solubility Ratio (5 mg, Water) | Dose Solubility Ratio (5 mg, pH 1, HCl 0.1N) | Dose Solubility Ratio (5 mg, pH 4.5, 50 mM acetate buffer) | Dose Solubility Ratio (5 mg, pH 6.8, 50 mM phosphate buffer) | Dose Solubility Ratio (5 mg, pH 7.5, 50 mM phosphate buffer)
